The target of data set [1] is T1, AChE (Musca domestica, UniProt Q7YWJ9). Briefly: biochemical. Format: biochemical, fly.
For another data set, the target named is T2, BuChE (Equus caballus, UniProt P81908).
T2 construct: BuChE (E.C. 3.1.1.8) (BR, 20 u/mg) from horse serum; purchased Shanghai Yuanye biological technology Co. Ltd (Shanghai, China); host or cells: horse serum (tissue-derived)
Briefly: BuChE inhibition, Ellman's method. In kind it is biochemical, horse. The conditions noted are these: read-out: IC50 ± S.D BuChE. The source says: There is increasing recognition that BuChE may play an important role in cholinergic transmission[15],[16]. While the level of AChE decreases dramatically in the advanced stage of AD, BuChE increases in brain regions involved in cognitive functions[17],[18]. At this point, BuChE is able to compensate for AChE loss by hydrolyzing ACh. These observations lead one to believe that inhibition of both AChE and BuChE may contribute to improvement of current symptomatic treatments of AD. Therefore, the compounds in Table 2 were also evaluated for BuChE inhibition activity by means of Ellman’s method. […] AChE (E.C. 3.1.1.7) (BR, 200 u/mg) from fly’s head and BuChE (E.C. 3.1.1.8) (BR, 20 u/mg) from horse serum were purchased from Shanghai Yuanye biological technology Co. Ltd (Shanghai, China).
The inhibitory activities of the compounds against AChE were evaluated according to Ellman’s coupled enzyme assay[47] with the following modifications. 90 μL potassium phosphate buffer (PBS, 0.1 M, pH 7.4), 10 μL the solution of 2 units/mL AChE in 0.1 M PBS (pH 7.4) and 10 μL the solution of 200 μM test compounds in the mixed solution of methanol-PBS (pH 7.4) (1:9, V/V) were added to each well of a 96-well plate. The methanol-PBS solution was used as a blank control. After incubation at room temperature for 10 min, 60 μL the solution of 10 mM DTNB in PBS was added into each the well. The plate was placed on crushed ices and cooled for 20 min. To each the well was added 30 μL the solution of 7.5 mM ATCh in PBS (pH 7.4). […] Each test was performed in triplicate. Inhibition rates of the enzyme were calculated relative to a control sample. The inhibitory activities against BuChE were measured as described above for AChE, using 0.7 unit/mL BuChE and 4 mM BuTCh instead of AChE and ATCh as the enzyme and substrate, respectively.
The probit value of the average inhibition rate for each test concentration and the corresponding lg[concentration] were used to establish enzyme inhibition regression equation by the linear least-square fitting method. IC50 values were calculated from the equations.

Data set [2] in a line: In vitro cytotoxicity, MTT assay. The conditions noted are these: pig, primary cultured porcine fetal kidney cells. The procedure:
(§1) In vitro cytotoxicity assay
(§2) Cytotoxic activity of the compounds was determined using MTT assay1. Primary cultured goat fetal fibroblasts and primary cultured porcine fetal kidney cells were cultured in the DMEM medium (high glucose) and a mixture culture medium consisting of 50% DMEM (high glucose) and 50% DMEM/F12, respectively, supplemented with 10% fetal bovine serum, penicillin (100 U/mL) and streptomycin (100 μg/mL) at 37 ℃ in 5% CO2. The cells at […]
(§3) After removal of the medium, the cells in each well were treated with 200 μL solution containing different concentrations of the tested compounds and vehicle controls which only received an equivalent amount of DMSO in quintuplicate for 48 h at 37 ℃. Thirty microliter of MTT solution (5 mg/mL in PBS) was added to each well with […] for an additional 4 h. After removing the supernatant, 150 μL of DMSO was added to completely dissolve the formazan crystals that had formed in viable cells in the wells. Finally, the plates were […]
(§4) containing the same media as other test wells but no cells were used as blank controls. All the doses were tested in quintuplicate and the experiments were repeated at least three times. The inhibition rates (IRs) were calculated.
(§5) (GraphPad Software Inc., San Diego, CA, USA).

For data set [3], the target named is T1, AChE. Briefly: Kinetic analysis of AChE inhibition (substrate ATCh). Format: biochemical, fly. The conditions noted are these: for Ki: substrate ATCh, read-out: inhibition constant Ki for AChE; for mechanism of AChE inhibition: with respect to substrate ATCh. From the text:
(A and B) The reciprocals of the initial reaction rates and substrate concentrations are plotted. (C and D) The slope values of the lines from graph A or C are plotted versus the inhibitor concentration, affording an equation of linear regression.

Data set [4] in a line: In vitro cytotoxicity, MTT assay. The conditions noted are these: mouse, mouse neuroblastoma N2a cells. Background: Tetrazolium dyes change colour on reduction, which living cells bring about.
Data set [5] deals with primary cultured porcine fetal kidney cells. Put plainly: In vitro cytotoxicity, MTT assay. The conditions noted are these: read-out: Cytotoxicity IC50, primary cultured porcine fetal kidney cells; 48 h. The procedure:
as §1, §2, §3, §4, §5

In data set [6] the test system is mouse neuroblastoma N2a cells. Briefly: In vitro cytotoxicity, MTT assay. The conditions noted are these: read-out: Cytotoxicity IC50, mouse neuroblastoma N2a cells; 48 h.
[7] abbreviates: test concentration of the compound 10 μM.

Molecules are shown by their SMILES.

T1 sequence (Q7YWJ9 81-659): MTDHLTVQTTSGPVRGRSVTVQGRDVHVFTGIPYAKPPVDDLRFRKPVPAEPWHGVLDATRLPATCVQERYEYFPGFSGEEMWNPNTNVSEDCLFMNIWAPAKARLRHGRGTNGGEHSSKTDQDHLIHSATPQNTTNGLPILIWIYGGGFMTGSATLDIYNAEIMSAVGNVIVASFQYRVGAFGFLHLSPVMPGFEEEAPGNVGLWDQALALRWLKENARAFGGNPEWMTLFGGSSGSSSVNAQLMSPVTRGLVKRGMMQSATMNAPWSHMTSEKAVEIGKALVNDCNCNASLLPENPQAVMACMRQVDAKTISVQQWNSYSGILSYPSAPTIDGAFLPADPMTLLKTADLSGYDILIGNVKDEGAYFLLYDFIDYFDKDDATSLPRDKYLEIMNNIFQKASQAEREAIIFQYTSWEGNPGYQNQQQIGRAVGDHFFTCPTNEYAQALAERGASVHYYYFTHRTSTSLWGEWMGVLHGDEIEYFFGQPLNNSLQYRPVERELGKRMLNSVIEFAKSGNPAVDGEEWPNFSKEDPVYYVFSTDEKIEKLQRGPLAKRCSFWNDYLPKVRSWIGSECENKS
T2 sequence (P81908 whole entry): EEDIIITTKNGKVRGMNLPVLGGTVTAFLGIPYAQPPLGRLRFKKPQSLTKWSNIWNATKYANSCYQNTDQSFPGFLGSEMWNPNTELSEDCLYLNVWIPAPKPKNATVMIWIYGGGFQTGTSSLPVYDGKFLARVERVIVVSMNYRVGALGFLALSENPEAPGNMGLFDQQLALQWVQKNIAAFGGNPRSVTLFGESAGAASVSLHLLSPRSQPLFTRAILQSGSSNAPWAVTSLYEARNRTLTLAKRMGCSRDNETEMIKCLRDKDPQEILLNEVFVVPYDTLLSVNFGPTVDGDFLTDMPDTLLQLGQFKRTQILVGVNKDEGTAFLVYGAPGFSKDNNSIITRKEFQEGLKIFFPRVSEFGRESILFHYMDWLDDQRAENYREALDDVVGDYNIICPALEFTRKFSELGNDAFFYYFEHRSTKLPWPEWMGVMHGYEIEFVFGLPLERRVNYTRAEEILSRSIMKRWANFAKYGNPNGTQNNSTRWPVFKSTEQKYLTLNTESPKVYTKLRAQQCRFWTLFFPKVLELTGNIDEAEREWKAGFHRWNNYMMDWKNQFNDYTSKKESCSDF

On to `Cc1ccc([N+]2=Cc3c(c4ccccc4n3C)CC2)cc1` [Compound A22], for which the “SI: selectivity index, ratio IC50 (BuChE)/IC50 (AChE)” value (“SI: selectivity index, ratio IC50” below) at AChE [1] is given as 55.2. The IC50 was 1.45 ± 0.21 µM on AChE [1] (read-out: IC50 ± S.D AChE) and 80.1 ± 5.27 µM on BuChE. Moreover, at AChE [1] (test concentration of the compound 10 μM, read-out: Inhibition rate (%)), the inhibition at 10 µM is 77.6 ± 1.5%. Further, the IC50 at 48 h in data set [2] is 5.18 µM; in data set [4], 2.13 µM. For the same compound, the Ki at AChE [3] is 0.483 µM. Further, the “mechanism of AChE inhibition” value on AChE [3] is “competitive”.
Regarding `Cc1ccc(-[n+]2ccc3c4ccccc4n(C)c3c2)cc1.[Br-]` [Compound B22, 9-Methyl-2-(4-methylphenyl)-β-carboline bromide], at AChE [1], the “SI: selectivity index, ratio IC50” value is listed as 111.6. Further, the “Inhibition rate (%)” value at AChE [1] (setting [7]) was 95.2 ± 0.5 abc %. For the same compound, the IC50 was found to be 32.2 ± 1.65 µM on BuChE, 18.1 µM in data set [5] and 19.2 µM in data set [6]. The “binding capacity with AChE relative to substrate ATCh” value at AChE [3] (Km of ATCh versus Ki) was ~3835 fold. The “binding capacity with AChE relative to A22” value at AChE [3] (ratio of Ki values) is reported as “approximately 11 fold”. In addition, the Ki at AChE [3] worked out at 0.0425 µM. For the same compound, the “mechanism of AChE inhibition” value on AChE [3] was “competitive”.
Consider `Cn1c2ccccc2c2cc[n+](-c3ccc(Br)cc3Br)cc21.[Br-]` [Compound B33, 9-Methyl-2-(2,4-dibromophenyl)-β-carboline bromide], for which the “SI: selectivity index, ratio IC50” value at AChE [1] worked out at 278.2. The “Inhibition rate (%)” value at AChE [1] (setting [7]) is 96.7 ± 0.05 a %. The results for the IC50 (at BuChE; in data set [5]; in data set [6]) were 30.6 ± 2.31 µM, > 20 µM and 10.6 µM, respectively.

A word on the IC50: it is the concentration that inhibits the measured activity by half. Broadly, the inhibition is the drop in the measured response relative to a control, in per cent. Broadly, the Ki is the dissociation constant of the complex between target and ligand, obtained from inhibition or displacement.

The values above are taken from article PMC5784158, “New 2-Aryl-9-methyl-β-carbolinium salts as Potential Acetylcholinesterase Inhibitor agents: Synthesis, Bioactivity and Structure–Activity Relationship” (Scientific Reports, 2018).
